Data from article PMC4961458 (eLife, 2016).
Like-named read-outs stand apart in the source and are kept apart here.

Key:
[1] = molecular target: T1, GR (Homo sapiens, UniProt P04150); assay: GR competitive radioligand binding assay
T1 sequence (P04150 1-777): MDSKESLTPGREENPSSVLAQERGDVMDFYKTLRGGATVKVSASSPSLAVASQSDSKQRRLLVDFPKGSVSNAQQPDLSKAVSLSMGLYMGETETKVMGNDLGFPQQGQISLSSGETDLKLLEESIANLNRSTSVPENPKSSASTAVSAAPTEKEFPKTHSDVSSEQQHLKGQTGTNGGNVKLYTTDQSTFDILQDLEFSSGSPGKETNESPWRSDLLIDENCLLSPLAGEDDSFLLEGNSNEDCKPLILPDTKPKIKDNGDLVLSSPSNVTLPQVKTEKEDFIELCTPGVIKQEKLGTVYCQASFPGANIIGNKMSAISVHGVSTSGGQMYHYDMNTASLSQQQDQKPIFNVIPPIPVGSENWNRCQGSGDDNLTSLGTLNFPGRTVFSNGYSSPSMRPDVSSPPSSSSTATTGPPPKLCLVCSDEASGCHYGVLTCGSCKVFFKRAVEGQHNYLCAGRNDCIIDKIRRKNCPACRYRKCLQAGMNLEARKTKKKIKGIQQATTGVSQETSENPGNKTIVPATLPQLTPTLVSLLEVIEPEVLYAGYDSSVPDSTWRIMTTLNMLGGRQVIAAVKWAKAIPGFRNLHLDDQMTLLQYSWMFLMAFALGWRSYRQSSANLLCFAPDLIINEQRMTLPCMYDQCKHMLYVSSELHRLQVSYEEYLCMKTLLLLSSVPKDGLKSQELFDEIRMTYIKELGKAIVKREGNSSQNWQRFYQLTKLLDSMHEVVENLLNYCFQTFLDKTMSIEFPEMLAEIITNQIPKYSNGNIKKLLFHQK
Procedure: Reactions were conducted in 96-well plates in TEGM (10 mM Tris-HCl pH 7.2, 1 mM EDTA, 10% glycerol, 1 mM β-mercaptoethanol, 10 mM sodium molybdate). […] All reactions were set up in duplicates and incubated at 4°C overnight. Receptor-bound ^3H-DEX was isolated by ultrafiltration using a Unifilter-96 GF/C filter plate (Perkin Elmer), eluted in 30 µL Microscint-20 and quantified using a scintillation counter (Top Count).

[2] = molecular target: T2, MR (Homo sapiens, UniProt P08235); assay: MR transcriptional reporter assay, agonist mode (HEPG2 cells); assay type: cell-based; conditions: % of maximal aldosterone-stimulated activity
T2 construct: expressed in transfected cells; host or cells: HEPG2
T2 sequence (P08235 1-984): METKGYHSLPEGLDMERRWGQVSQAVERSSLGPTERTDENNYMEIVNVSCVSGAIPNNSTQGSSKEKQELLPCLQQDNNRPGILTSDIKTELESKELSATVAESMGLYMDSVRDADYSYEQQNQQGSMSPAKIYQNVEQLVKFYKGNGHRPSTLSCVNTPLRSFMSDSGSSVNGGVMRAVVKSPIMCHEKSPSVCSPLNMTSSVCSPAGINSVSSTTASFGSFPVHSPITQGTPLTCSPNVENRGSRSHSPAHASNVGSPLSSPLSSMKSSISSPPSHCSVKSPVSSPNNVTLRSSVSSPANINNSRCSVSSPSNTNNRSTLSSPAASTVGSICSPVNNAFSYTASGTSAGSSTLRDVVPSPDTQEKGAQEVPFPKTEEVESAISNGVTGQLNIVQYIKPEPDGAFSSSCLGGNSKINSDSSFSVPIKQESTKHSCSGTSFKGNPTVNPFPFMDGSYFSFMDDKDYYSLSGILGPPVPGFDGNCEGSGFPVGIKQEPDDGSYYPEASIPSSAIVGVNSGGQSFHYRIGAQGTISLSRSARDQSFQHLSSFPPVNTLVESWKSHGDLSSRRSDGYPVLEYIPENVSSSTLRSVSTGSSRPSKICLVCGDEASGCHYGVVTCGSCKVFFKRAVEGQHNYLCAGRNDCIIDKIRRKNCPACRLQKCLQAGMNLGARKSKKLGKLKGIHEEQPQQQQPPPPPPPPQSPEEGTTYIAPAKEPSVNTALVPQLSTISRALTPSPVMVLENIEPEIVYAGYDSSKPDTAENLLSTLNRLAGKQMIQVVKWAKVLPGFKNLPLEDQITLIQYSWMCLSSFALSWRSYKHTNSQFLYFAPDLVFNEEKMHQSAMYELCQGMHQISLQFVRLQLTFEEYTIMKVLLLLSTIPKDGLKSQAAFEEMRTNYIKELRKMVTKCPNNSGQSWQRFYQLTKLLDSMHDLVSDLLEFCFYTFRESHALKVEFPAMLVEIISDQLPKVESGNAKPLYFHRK
Procedure: Transcriptional assays were performed by seeding 100 μL of cells at a density of 250,000 cells/mL into 96-well cell culture plates in RPMI 1640 supplemented with 5% charcoal-stripped serum and allowed to attach overnight. […] Triplicate transfections were performed using 418 ng reporter vector (2X PRE-Luciferase for PR-A and PR-B, MMTV-Luciferase for MR), 50 ng CMVpRL (normalization vector), 10 ng NHR expression vector (CMX-PR-A, pCDNA-PR-B or 6R-MR), and 0.7 μL lipofectin. […] The final agonist concentration used in the antagonist assays was 1 nM. Following 24 hr incubation, the medium was removed and the cells were lysed in 40 μL of lysis buffer (25 mM Tris Phosphate, 2 mM CDTA, 10% Glycerol, 0.5% Triton X-100, 2 mM DTT). Firefly luciferase activity was measured immediately following the addition of 40 μL luciferase buffer (20 mM tricine, 0.1 mM EDTA, 1.07 mM (MgCO3)4 Mg(OH)2· 5H2O, 2.67 mM MgSO4, 33.3 mM DTT, 270 μM Coenzyme A, 470 μM luciferin, 530 μM ATP).

[3] = test system: uterus of juvenile rats; assay: Juvenile rat uterus assays; assay type: in vivo, Sprague Dawley rats; conditions: for Uterine wet weight: tamoxifen 60 mg/kg orally once a day for 3 days, GDC-0810 0.1 or 10 mg/kg, relative to vehicle control; for Uterine wet weight / Endometrial epithelial cell morphology (histology, endometrial cell height): fulvestrant 50 mg/kg; for Endometrial epithelial cell morphology (histology, endometrial cell height): tamoxifen 60 mg/kg, GDC-0810 0.1 and 10 mg/kg
Description: […] Rats were euthanized 4 hr after the final dose. Uteri were then dissected, weighed and fixed for histological examination. A small portion of tissue was saved prior to fixation for mRNA isolation and gene expression analysis.
H&E stained sections from bilateral representative uterine horn cross-sections were examined from two animals treated with the compounds shown. Endometrial cell height was digitally measured from the basement membrane to the apical (luminal) surface (orange line), using a digitally scanned image at 20X magnification. Obliquely cut areas were avoided. Three digital measurements were taken from each section (n = 6).
Estrogen receptor was detected using the mouse monoclonal anti-ER (clone 1D5, Dako), incubated for 60 min at RT at a dilution of 0.5 µg/ml, and visualized after secondary rabbit anti-mouse antibody binding with Powervision DAB (Leica Powersystems). H-scores were estimated manually, incorporating both intensity and percentage of positive nuclei, using the following formula: (0 x% negative)+(1 x% weak)+(2 x% moderate)+(3 x% strong)

Compound	IC50 ([1]; 3.0 nM 3H-dexamethasone, read-out: GR IC50)	Emax [2]	IC50 [1]	ER levels in the uterus (IHC) [3]	Uterine wet weight [3]	Endometrial epithelial cell morphology (histology, endometrial cell height) [3]
CC/C(=C(\c1ccc(O)cc1)c1ccc(OCCN(C)C)cc1)c1ccccc1 [4-OH Tam, 4-hydroxytamoxifen]	> 1800 nM	0%	–	–	–	–
C[C@]12CC[C@@H]3c4ccc(O)cc4C[C@@H](CCCCCCCCC[S+]([O-])CCCC(F)(F)C(F)(F)F)[C@H]3[C@@H]1CC[C@@H]2O (stereo partly shown) [Fulvestrant]	–	–	817 nM	robustly depletes ER	significant decrease in uterine weight	remained cuboidal
CC/C(=C(/c1ccc(/C=C/C(=O)O)cc1)c1ccc2[nH]ncc2c1)c1ccc(F)cc1Cl [GDC-0810]	–	0.09 ± 0.16%	–	only modestly reduces ER levels	did not significantly alter uterine wet	induced a cuboidal to columnar morphological change
